# Measured values as given in ChEMBL document CHEMBL5649166, “RIP3 induces apoptosis independent of pronecrotic kinase activity” (Mol Cell, 2014).
# How the values were obtained:
# [1] = biological target: T1, Serine/threonine-protein kinase 4 (Homo sapiens) (UniProt Q13043); assay: Inhibition of human MST1/STK4 using KKSRGDYMTMQIG as substrate at 1 uM in presence of 32P-ATP by Hotspot assay relative to control; values are per cent of control
# T1 sequence (whole entry): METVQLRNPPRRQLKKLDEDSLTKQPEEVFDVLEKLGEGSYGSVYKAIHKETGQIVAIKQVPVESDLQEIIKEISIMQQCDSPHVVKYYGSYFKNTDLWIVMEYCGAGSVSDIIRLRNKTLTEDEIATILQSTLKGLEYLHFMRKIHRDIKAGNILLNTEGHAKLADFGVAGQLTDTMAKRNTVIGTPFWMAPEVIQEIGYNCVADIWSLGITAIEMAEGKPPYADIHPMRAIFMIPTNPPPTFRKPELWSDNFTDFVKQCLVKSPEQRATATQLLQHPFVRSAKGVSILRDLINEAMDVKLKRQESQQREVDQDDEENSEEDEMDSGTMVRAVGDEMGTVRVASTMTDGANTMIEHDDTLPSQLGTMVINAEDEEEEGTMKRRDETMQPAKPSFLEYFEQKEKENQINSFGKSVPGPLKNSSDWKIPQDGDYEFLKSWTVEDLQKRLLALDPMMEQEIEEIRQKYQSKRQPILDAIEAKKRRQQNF
# [2] = biological target: MAP kinase-interacting serine/threonine-protein kinase 2 (Homo sapiens) (UniProt Q9HBH9); assay: Inhibition of human MNK2 using myelin basic protein as substrate at 1 uM in presence of 32P-ATP by Hotspot assay relative to control; values are per cent of control
# [3] = biological target: Serine/threonine-protein kinase WNK3 (Homo sapiens) (UniProt Q9BYP7); assay: Inhibition of human WNK3 using myelin basic protein as substrate at 1 uM in presence of 32P-ATP by Hotspot assay relative to control; values are per cent of control
# [4] = biological target: PAS domain-containing serine/threonine-protein kinase (Homo sapiens) (UniProt Q96RG2); assay: Inhibition of human PASK using KKLNRTLSFAEPG as substrate at 1 uM in presence of 32P-ATP by Hotspot assay relative to control; values are per cent of control
# MEF = assay: Induction of apoptosis in RIP3-/- MEF cells transfected with human RIP3 incubated for 18 hrs by Cell Titer-Glo luminescent cell viability assay; assay type: toxicity, cell-based; settings: mouse
# [5] = biological target: Glycogen synthase kinase-3 beta (Homo sapiens) (UniProt P49841); assay: Inhibition of human GSK3b using YRRAAVPPSPSLSRHSSPHQ(pS)EDEEE as substrate at 1 uM in presence of 32P-ATP by Hotspot assay relative to control; values are per cent of control
# [6] = biological target: Mitogen-activated protein kinase 10 (Homo sapiens) (UniProt P53779); assay: Inhibition of human JNK3 using ATF2 as substrate at 1 uM in presence of 32P-ATP by Hotspot assay relative to control; values are per cent of control
# [7] = biological target: CDK9/Cyclin K (Homo sapiens) (UniProt P50750+O75909); assay: Inhibition of human CDK9/cyclin K using KTFCGTPEYLAPEVRREPRILSEEEQEMFRDFDYIADWC as substrate at 1 uM in presence of 32P-ATP by Hotspot assay relative to control; values are per cent of control
# [8] = biological target: T2, Mitogen-activated protein kinase 13 (Homo sapiens) (UniProt O15264); assay: Inhibition of human P38d/MAPK13 using myelin basic protein as substrate at 1 uM in presence of 32P-ATP by Hotspot assay relative to control; values are per cent of control
# T2 sequence (whole entry): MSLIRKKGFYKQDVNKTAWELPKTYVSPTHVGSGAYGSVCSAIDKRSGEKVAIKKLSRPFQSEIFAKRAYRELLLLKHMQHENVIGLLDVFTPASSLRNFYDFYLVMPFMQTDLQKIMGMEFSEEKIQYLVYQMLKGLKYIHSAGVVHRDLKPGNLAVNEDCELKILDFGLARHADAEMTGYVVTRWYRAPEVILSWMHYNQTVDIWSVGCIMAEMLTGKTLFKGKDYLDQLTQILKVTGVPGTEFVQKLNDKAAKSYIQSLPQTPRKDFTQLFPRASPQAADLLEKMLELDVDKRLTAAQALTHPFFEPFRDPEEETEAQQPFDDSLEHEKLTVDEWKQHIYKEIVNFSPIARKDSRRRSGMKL
# [9] = biological target: Serine/threonine-protein kinase OSR1 (Homo sapiens) (UniProt O95747); assay: Inhibition of human OSR1/OXSR1 using RRHYYYDTHTNTYYLRTFGHNTRR as substrate at 1 uM in presence of 32P-ATP by Hotspot assay relative to control; values are per cent of control
# [10] = biological target: ALK tyrosine kinase receptor (Homo sapiens) (UniProt Q9UM73); assay: Inhibition of human ALK using poly[Glu:Tyr] (4:1) as substrate at 1 uM in presence of 32P-ATP by Hotspot assay relative to control; values are per cent of control
# [11] = biological target: Tyrosine-protein kinase Fgr (Homo sapiens) (UniProt P09769); assay: Inhibition of human FGR using poly[Glu:Tyr] (4:1) as substrate at 1 uM in presence of 32P-ATP by Hotspot assay relative to control; values are per cent of control
# [12] = biological target: Dual specificity tyrosine-phosphorylation-regulated kinase 1A (Homo sapiens) (UniProt Q13627); assay: Residual activity of human DYRK1/DYRK1A using RRRFRPASPLRGPPK as substrate at 1 uM in presence of 32P-ATP by Hotspot assay relative to control
# [13] = biological target: Dual specificity mitogen-activated protein kinase kinase 2 (Homo sapiens) (UniProt P36507); assay: Inhibition of human MEK2 using ERK2 (K52R) as substrate at 1 uM in presence of 32P-ATP by Hotspot assay relative to control; values are per cent of control
# Dual specificity mitogen-activated protein kinase kinase 2 (Homo sapiens), sequence (P36507 whole entry): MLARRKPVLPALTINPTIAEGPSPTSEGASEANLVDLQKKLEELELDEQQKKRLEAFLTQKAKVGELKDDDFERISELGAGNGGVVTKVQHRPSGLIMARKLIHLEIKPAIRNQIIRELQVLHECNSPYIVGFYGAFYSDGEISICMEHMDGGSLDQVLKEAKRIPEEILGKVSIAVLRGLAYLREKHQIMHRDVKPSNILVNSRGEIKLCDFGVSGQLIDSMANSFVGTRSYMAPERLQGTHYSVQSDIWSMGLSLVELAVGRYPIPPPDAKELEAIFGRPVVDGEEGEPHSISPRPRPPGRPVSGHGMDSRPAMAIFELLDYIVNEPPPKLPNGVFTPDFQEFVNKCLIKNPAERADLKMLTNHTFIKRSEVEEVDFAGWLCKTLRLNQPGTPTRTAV
# Glycogen synthase kinase-3 beta (Homo sapiens), sequence (P49841 whole entry, looked up): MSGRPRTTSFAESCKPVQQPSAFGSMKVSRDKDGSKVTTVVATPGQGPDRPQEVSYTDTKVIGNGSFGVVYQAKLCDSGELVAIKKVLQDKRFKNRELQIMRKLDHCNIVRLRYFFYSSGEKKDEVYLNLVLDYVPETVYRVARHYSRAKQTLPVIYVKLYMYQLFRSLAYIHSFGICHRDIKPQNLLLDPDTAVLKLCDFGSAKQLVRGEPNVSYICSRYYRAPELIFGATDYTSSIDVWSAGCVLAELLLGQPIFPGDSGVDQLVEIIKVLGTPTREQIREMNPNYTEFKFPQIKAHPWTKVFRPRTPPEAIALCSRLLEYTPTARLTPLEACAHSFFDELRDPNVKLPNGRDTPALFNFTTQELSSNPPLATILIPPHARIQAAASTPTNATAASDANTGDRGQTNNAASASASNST
# Mitogen-activated protein kinase 10 (Homo sapiens), sequence (P53779 whole entry): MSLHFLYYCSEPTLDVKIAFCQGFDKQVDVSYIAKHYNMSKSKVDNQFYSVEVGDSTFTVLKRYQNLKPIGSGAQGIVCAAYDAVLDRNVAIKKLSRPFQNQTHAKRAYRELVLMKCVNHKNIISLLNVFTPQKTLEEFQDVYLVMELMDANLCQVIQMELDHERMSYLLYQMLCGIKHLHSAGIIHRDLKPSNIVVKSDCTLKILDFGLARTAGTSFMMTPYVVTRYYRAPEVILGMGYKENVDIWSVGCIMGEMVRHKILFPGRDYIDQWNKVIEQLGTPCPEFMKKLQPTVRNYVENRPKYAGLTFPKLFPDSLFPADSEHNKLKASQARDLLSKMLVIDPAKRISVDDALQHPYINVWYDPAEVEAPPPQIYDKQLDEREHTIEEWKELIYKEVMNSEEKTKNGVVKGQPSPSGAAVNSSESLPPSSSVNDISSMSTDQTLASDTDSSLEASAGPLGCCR
# PAS domain-containing serine/threonine-protein kinase (Homo sapiens), sequence (Q96RG2 whole entry, the tested form may be a part): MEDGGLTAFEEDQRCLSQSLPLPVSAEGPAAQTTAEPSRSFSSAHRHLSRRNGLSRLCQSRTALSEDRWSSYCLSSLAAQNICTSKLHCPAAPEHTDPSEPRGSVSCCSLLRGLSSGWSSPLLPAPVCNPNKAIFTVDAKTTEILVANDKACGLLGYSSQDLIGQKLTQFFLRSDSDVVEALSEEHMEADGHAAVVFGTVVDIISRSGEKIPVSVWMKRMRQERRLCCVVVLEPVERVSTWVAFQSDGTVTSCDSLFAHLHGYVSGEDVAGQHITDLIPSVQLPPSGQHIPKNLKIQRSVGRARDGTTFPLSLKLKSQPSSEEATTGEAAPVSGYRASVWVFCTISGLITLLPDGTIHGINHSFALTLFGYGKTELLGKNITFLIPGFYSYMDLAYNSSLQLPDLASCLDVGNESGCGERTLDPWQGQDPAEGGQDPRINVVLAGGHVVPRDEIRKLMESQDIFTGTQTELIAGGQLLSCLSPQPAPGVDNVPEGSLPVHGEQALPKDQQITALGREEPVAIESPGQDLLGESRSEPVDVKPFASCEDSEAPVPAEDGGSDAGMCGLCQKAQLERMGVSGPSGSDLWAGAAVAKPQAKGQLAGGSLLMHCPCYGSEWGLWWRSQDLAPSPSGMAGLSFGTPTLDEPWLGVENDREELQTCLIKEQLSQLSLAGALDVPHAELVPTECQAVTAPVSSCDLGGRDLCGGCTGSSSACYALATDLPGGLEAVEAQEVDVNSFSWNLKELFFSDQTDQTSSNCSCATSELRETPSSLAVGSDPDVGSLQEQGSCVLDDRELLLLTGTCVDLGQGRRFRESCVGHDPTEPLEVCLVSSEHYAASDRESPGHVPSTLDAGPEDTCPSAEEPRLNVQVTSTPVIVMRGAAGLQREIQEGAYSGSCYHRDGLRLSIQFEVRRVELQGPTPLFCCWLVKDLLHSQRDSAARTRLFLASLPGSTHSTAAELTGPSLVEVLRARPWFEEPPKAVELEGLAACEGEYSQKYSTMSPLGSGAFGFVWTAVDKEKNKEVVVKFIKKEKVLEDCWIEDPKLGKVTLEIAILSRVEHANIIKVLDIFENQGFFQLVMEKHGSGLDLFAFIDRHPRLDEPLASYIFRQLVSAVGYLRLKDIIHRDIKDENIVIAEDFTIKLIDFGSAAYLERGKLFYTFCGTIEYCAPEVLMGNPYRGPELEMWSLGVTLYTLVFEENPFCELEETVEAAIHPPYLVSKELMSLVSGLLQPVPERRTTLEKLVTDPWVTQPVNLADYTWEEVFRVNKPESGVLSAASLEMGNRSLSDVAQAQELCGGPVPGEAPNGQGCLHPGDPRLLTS
# Serine/threonine-protein kinase WNK3 (Homo sapiens), sequence (Q9BYP7 whole entry, the tested form may be a part): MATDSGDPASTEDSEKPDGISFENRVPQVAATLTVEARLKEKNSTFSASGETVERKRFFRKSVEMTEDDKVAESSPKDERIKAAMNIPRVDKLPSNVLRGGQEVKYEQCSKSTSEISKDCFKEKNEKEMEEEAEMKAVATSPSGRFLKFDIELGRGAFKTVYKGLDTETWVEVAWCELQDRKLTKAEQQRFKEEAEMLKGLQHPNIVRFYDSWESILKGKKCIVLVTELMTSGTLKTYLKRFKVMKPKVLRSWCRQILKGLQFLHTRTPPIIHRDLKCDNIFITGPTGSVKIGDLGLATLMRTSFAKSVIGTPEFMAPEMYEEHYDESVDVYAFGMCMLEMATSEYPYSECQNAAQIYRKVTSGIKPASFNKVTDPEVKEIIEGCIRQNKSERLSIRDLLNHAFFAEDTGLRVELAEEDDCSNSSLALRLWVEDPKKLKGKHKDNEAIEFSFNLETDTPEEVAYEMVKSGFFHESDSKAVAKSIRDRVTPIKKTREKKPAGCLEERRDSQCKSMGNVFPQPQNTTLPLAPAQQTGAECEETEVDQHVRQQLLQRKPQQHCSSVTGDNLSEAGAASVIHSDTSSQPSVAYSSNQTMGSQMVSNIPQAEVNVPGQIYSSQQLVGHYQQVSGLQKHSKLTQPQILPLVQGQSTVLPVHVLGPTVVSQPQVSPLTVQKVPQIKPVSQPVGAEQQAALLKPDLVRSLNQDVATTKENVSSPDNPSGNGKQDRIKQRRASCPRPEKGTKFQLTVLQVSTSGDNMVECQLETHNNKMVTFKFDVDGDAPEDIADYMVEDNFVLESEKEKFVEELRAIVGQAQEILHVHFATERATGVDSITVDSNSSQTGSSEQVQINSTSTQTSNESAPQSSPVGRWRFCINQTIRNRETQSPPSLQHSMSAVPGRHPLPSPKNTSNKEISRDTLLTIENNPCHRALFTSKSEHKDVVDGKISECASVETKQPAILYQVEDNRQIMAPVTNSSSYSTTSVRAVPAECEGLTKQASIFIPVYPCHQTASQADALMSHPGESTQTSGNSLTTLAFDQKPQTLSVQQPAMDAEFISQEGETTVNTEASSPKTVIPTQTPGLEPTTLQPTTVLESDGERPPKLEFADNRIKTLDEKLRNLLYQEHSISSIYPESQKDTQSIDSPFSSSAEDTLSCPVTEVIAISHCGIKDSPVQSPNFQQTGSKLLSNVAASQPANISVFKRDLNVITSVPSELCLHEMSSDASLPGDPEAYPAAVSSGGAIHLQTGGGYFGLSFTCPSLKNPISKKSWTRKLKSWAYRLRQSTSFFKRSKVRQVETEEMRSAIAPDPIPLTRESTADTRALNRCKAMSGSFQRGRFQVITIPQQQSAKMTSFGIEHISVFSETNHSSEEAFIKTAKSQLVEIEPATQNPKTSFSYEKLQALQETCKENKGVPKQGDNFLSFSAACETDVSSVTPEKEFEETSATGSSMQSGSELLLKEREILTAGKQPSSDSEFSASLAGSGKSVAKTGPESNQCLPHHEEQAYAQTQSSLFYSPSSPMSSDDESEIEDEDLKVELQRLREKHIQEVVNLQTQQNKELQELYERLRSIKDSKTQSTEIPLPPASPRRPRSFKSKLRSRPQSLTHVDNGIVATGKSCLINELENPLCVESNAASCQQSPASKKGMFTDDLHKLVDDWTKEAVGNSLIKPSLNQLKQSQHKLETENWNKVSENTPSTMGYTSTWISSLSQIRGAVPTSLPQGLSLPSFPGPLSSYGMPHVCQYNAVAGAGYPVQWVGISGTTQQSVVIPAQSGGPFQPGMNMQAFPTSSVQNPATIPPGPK
# Tyrosine-protein kinase Fgr (Homo sapiens), sequence (P09769 2-529 limits assumed): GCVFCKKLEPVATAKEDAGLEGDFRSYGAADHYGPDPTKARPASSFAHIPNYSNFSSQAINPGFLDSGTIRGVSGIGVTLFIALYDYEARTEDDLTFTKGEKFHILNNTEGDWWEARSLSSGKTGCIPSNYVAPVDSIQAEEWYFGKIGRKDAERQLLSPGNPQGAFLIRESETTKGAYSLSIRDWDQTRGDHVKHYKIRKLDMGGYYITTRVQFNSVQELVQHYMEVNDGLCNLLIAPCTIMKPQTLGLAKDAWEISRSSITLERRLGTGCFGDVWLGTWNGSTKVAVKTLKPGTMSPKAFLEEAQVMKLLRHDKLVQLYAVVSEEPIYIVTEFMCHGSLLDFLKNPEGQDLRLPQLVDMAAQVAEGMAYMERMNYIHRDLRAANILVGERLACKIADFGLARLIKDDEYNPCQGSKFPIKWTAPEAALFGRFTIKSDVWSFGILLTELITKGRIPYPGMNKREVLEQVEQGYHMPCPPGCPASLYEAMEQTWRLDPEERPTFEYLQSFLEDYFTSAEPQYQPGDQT
SMILES,residual activity [1] [%],residual activity [2] [%],residual activity [3] [%],residual activity [4] [%],Activity (MEF),residual activity [5] [%],residual activity [6] [%],residual activity [7] [%],residual activity [8] [%],residual activity [9] [%],residual activity [10] [%],residual activity [11] [%],residual activity [12] [%],residual activity [13] [%]
CC(C)S(=O)(=O)c1ccc2nccc(Nc3ccc4scnc4c3)c2c1,98.5,96,104,96.5,Toxic,83.8,106,94.5,94.8,97.8,90.8,28.5,98.8,105
Cc1cc(-c2cnc(N)c3c(-c4ccc5scnc5c4)csc23)n(C)n1,96.9,97.9,83,93.1,Toxic,93.2,85.9,104,103,97.4,96.6,22.2,99.6,97.8
CNC(=O)c1ccc2c(c1)ncn2-c1ccc(CC(=O)OC(C)(C)C)cc1,95.3,70.6,99.9,99.8,Toxic,65.2,104,99.6,104,98.2,101,37.6,99.4,98.3
